Measured values taken from paper PMC7531004, “Discovery of gramicidin A analogues with altered activities by multidimensional screening of a one-bead-one-compound library” (Nature Communications, 2020).
Where a SMILES comes first, the peptide text is derived from it. [ ]: non-standard residue; d: D form. The star is where a group is joined. NHCH2CH2OH = OCCN*; For = O=C*

Legend:
[1] = test system: Streptococcus pyogenes SSI-9; assay: Antibacterial activity assay of bead-derived peptides (three concentrations); type: cell-based; parameters: key: +++: inhibition by the 640-fold diluted peptide solution; ++: inhibition by the 160-fold diluted solution; +: inhibition by the 40-fold diluted solution; -: no inhibition; conditions: S. pyogenes, bead-derived peptide solution, three concentrations
Method in brief: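 Growth inhibition scored visually as precipitated bacteria after 37 °C, 18 h incubation. Streptococcus pyogenes SSI-9 inoculum of 2 × 10^5 CFU in Ca2+/Mg2+-adjusted Mueller Hinton broth plus 5% laked horse blood; peptides tested at three levels: stock, 4-fold and 16-fold DMSO dilutions.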

[2] = cell viability/%
Method in brief: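 Peptide stocks diluted 250× in growth medium; P388 cells 1 × 10^4 cells/mL final; 37 °C, 5% CO2, 92 h. WST-1 + 1-methoxy PMS, 4 h, A415. Output: % viability.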

[3] = H+/Na+ transport assay of bead-derived peptides (one-point); type: biochemical; parameters: key: relative activity; mean of two control wells = 1.00; conditions: bead-derived peptide solution, EYPC/EYPG LUVs;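 further: relative to parent gramicidin A activity set to 1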
Method in brief: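 One-point screen: peptide + pyranine-loaded LUVs, 30 min RT with vortexing, 96-well. Read-out is fluorescence intensity scaled as 100 × (Ix – I0)/(Imax – I0). Imax from Triton X-100, I0 from untreated vesicles, and the mean of the two control wells is set to 1.00.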

Compound | antibacterial activity [1] | viability [2] | H+/Na+ transport activity normalized against the value of 1 (1.00) [3]
CC(C)C[C@@H](NC(=O)[C@H](Cc1c[nH]c2ccccc12)NC(=O)[C@H](NC(=O)[C@H](Cc1c[nH]c2ccccc12)NC(=O)[C@@H](CC(C)C)NC(=O)[C@H](Cc1c[nH]c2ccccc12)NC(=O)[C@H](NC(=O)[C@@H](NC(=O)[C@H](NC(=O)[C@H](C)NC(=O)[C@H](NC(=O)[C@H](C)NC(=O)CNC(=O)[C@@H](NC=O)C(C)C)C(C)C)C(C)C)C(C)C)C(C)C)[C@H](C)O)C(=O)N[C@@H](Cc1c[nH]c2ccccc12)C(=O)NCCO [compound 521] (For-VGA[dV]A[dV]V[dV]W[dL]W[dT]W[dL]W-NHCH2CH2OH) | + | 100% | 1.05
CC(C)C[C@@H](NC(=O)[C@H](Cc1c[nH]c2ccccc12)NC(=O)[C@H](NC(=O)[C@H](Cc1c[nH]c2ccccc12)NC(=O)[C@@H](CC(C)C)NC(=O)[C@@H](NC(=O)[C@H](NC(=O)[C@H](C)NC(=O)[C@H](NC(=O)[C@H](C)NC(=O)CNC(=O)[C@@H](NC=O)C(C)C)C(C)C)C(C)C)C(C)C)C(C)C)C(=O)N[C@@H](Cc1c[nH]c2ccccc12)C(=O)N[C@@H](C(=O)N[C@@H](Cc1c[nH]c2ccccc12)C(=O)NCCO)[C@H](C)O [compound 8580] (For-VGA[dV]A[dV]V[dL]W[dV]W[dL]W[dT]W-NHCH2CH2OH) | + | 60.6% | 1.01
CC(C)C[C@@H](NC(=O)[C@H](C)NC(=O)CNC(=O)[C@@H](NC=O)C(C)C)C(=O)N[C@@H](C)C(=O)N[C@@H](C(=O)N[C@H](C(=O)N[C@@H](C(=O)N[C@@H](Cc1c[nH]c2ccccc12)C(=O)N[C@H](CC(C)C)C(=O)N[C@@H](Cc1c[nH]c2ccccc12)C(=O)N[C@H](CC(C)C)C(=O)N[C@@H](Cc1c[nH]c2ccccc12)C(=O)N[C@H](CC(C)C)C(=O)N[C@@H](Cc1c[nH]c2ccccc12)C(=O)NCCO)[C@H](C)O)C(C)C)C(C)C [compound 1819] (For-VGA[dL]A[dV]V[dT]W[dL]W[dL]W[dL]W-NHCH2CH2OH) | + | 100% | 1.22
CC(C)C[C@@H](NC(=O)[C@H](Cc1c[nH]c2ccccc12)NC(=O)[C@H](NC(=O)[C@H](Cc1c[nH]c2ccccc12)NC(=O)[C@@H](CC(C)C)NC(=O)[C@H](Cc1c[nH]c2ccccc12)NC(=O)[C@@H](CC(C)C)NC(=O)[C@@H](NC(=O)[C@H](NC(=O)[C@H](C)NC(=O)[C@H](NC(=O)[C@H](C)NC(=O)CNC(=O)[C@@H](NC=O)C(C)C)C(C)C)[C@H](C)O)C(C)C)C(C)C)C(=O)N[C@@H](Cc1c[nH]c2ccccc12)C(=O)NCCO [compound 10686] (For-VGA[dV]A[dT]V[dL]W[dL]W[dV]W[dL]W-NHCH2CH2OH) | - | 100% | 1.05
CC(C)C[C@@H](NC(=O)[C@H](Cc1c[nH]c2ccccc12)NC(=O)[C@@H](CC(C)C)NC(=O)[C@H](Cc1c[nH]c2ccccc12)NC(=O)[C@H](NC(=O)[C@H](Cc1c[nH]c2ccccc12)NC(=O)[C@H](NC(=O)[C@@H](NC(=O)[C@H](NC(=O)[C@H](C)NC(=O)[C@H](NC(=O)[C@H](C)NC(=O)CNC(=O)[C@@H](NC=O)C(C)C)C(C)C)C(C)C)C(C)C)[C@H](C)O)[C@H](C)O)C(=O)N[C@@H](Cc1c[nH]c2ccccc12)C(=O)NCCO [compound 12293] (For-VGA[dV]A[dV]V[dT]W[dT]W[dL]W[dL]W-NHCH2CH2OH) | - | 100% | 1.00
CNC(=O)C[C@@H](NC(=O)[C@H](C)NC(=O)[C@H](NC(=O)[C@H](C)NC(=O)CNC(=O)[C@@H](NC=O)C(C)C)C(C)C)C(=O)N[C@H](C(=O)N[C@H](CC(C)C)C(=O)N[C@@H](Cc1c[nH]c2ccccc12)C(=O)N[C@@H](C(=O)N[C@@H](Cc1c[nH]c2ccccc12)C(=O)N[C@@H](C(=O)N[C@@H](Cc1c[nH]c2ccccc12)C(=O)N[C@@H](C(=O)N[C@@H](Cc1c[nH]c2ccccc12)C(=O)NCCO)C(C)C)C(C)C)C(C)C)C(C)C [compound 13148] (For-VGA[dV]A[dD](NHMe)V[dL]W[dV]W[dV]W[dV]W-NHCH2CH2OH) | - | 93.6% | 1.03
CC(C)C[C@@H](NC(=O)[C@H](C)NC(=O)[C@H](NC(=O)[C@H](C)NC(=O)CNC(=O)[C@@H](NC=O)C(C)C)C(C)C)C(=O)N[C@H](C(=O)N[C@H](CC(C)C)C(=O)N[C@@H](Cc1c[nH]c2ccccc12)C(=O)N[C@@H](C(=O)N[C@@H](Cc1c[nH]c2ccccc12)C(=O)N[C@@H](C(=O)N[C@@H](Cc1c[nH]c2ccccc12)C(=O)N[C@H](CC(C)C)C(=O)N[C@@H](Cc1c[nH]c2ccccc12)C(=O)NCCO)[C@H](C)O)C(C)C)C(C)C [compound 3205] (For-VGA[dV]A[dL]V[dL]W[dV]W[dT]W[dL]W-NHCH2CH2OH) | - | 90.2% | 1.16
CNC(=O)C[C@@H](NC(=O)[C@H](Cc1c[nH]c2ccccc12)NC(=O)[C@H](NC(=O)[C@@H](NC(=O)[C@@H](CC(C)C)NC(=O)[C@H](C)NC(=O)[C@@H](CC(C)C)NC(=O)[C@H](C)NC(=O)CNC(=O)[C@@H](NC=O)C(C)C)C(C)C)C(C)C)C(=O)N[C@@H](Cc1c[nH]c2ccccc12)C(=O)N[C@@H](C(=O)N[C@@H](Cc1c[nH]c2ccccc12)C(=O)N[C@@H](C(=O)N[C@@H](Cc1c[nH]c2ccccc12)C(=O)NCCO)C(C)C)C(C)C [compound 5255] (For-VGA[dL]A[dL]V[dV]W[dD](NHMe)W[dV]W[dV]W-NHCH2CH2OH) | - | 100% | 1.25
CNC(=O)C[C@@H](NC(=O)[C@H](Cc1c[nH]c2ccccc12)NC(=O)[C@H](NC(=O)[C@H](Cc1c[nH]c2ccccc12)NC(=O)[C@@H](CC(C)C)NC(=O)[C@H](Cc1c[nH]c2ccccc12)NC(=O)[C@H](NC(=O)[C@@H](NC(=O)[C@@H](CC(C)C)NC(=O)[C@H](C)NC(=O)[C@@H](CC(C)C)NC(=O)[C@H](C)NC(=O)CNC(=O)[C@@H](NC=O)C(C)C)C(C)C)C(C)C)C(C)C)C(=O)N[C@@H](Cc1c[nH]c2ccccc12)C(=O)NCCO [compound 8516] (For-VGA[dL]A[dL]V[dV]W[dL]W[dV]W[dD](NHMe)W-NHCH2CH2OH) | - | 48.7% | 1.09
CC(C)C[C@@H](NC(=O)[C@H](C)NC(=O)CNC(=O)[C@@H](NC=O)C(C)C)C(=O)N[C@@H](C)C(=O)N[C@@H](C(=O)N[C@H](C(=O)N[C@H](CC(C)C)C(=O)N[C@@H](Cc1c[nH]c2ccccc12)C(=O)N[C@@H](C(=O)N[C@@H](Cc1c[nH]c2ccccc12)C(=O)N[C@@H](C(=O)N[C@@H](Cc1c[nH]c2ccccc12)C(=O)N[C@@H](C(=O)N[C@@H](Cc1c[nH]c2ccccc12)C(=O)NCCO)C(C)C)C(C)C)C(C)C)C(C)C)[C@H](C)O [compound 3733] (For-VGA[dL]A[dT]V[dL]W[dV]W[dV]W[dV]W-NHCH2CH2OH) | - | 100% | 1.11
CC(C)C[C@@H](NC(=O)[C@H](C)NC(=O)CNC(=O)[C@@H](NC=O)C(C)C)C(=O)N[C@@H](C)C(=O)N[C@@H](C(=O)N[C@H](C(=O)N[C@@H](C(=O)N[C@@H](Cc1c[nH]c2ccccc12)C(=O)N[C@H](CC(C)C)C(=O)N[C@@H](Cc1c[nH]c2ccccc12)C(=O)N[C@@H](C(=O)N[C@@H](Cc1c[nH]c2ccccc12)C(=O)N[C@H](CC(C)C)C(=O)N[C@@H](Cc1c[nH]c2ccccc12)C(=O)NCCO)C(C)C)[C@H](C)O)C(C)C)C(C)C [compound 1711] (For-VGA[dL]A[dV]V[dT]W[dL]W[dV]W[dL]W-NHCH2CH2OH) | - | 100% | 1.01
CC(C)C[C@@H](NC(=O)[C@H](C)NC(=O)[C@H](NC(=O)[C@H](C)NC(=O)CNC(=O)[C@@H](NC=O)C(C)C)[C@H](C)O)C(=O)N[C@H](C(=O)N[C@H](CC(C)C)C(=O)N[C@@H](Cc1c[nH]c2ccccc12)C(=O)N[C@@H](C(=O)N[C@@H](Cc1c[nH]c2ccccc12)C(=O)N[C@H](CC(C)C)C(=O)N[C@@H](Cc1c[nH]c2ccccc12)C(=O)N[C@@H](C(=O)N[C@@H](Cc1c[nH]c2ccccc12)C(=O)NCCO)C(C)C)C(C)C)C(C)C [compound 102] (For-VGA[dT]A[dL]V[dL]W[dV]W[dL]W[dV]W-NHCH2CH2OH) | - | 100% | 1.09
CC(C)C[C@@H](NC(=O)[C@H](C)NC(=O)[C@H](NC(=O)[C@H](C)NC(=O)CNC(=O)[C@@H](NC=O)C(C)C)C(C)C)C(=O)N[C@H](C(=O)N[C@@H](C(=O)N[C@@H](Cc1c[nH]c2ccccc12)C(=O)N[C@@H](C(=O)N[C@@H](Cc1c[nH]c2ccccc12)C(=O)N[C@H](CC(C)C)C(=O)N[C@@H](Cc1c[nH]c2ccccc12)C(=O)N[C@@H](C(=O)N[C@@H](Cc1c[nH]c2ccccc12)C(=O)NCCO)C(C)C)C(C)C)[C@H](C)O)C(C)C [compound 3206] (For-VGA[dV]A[dL]V[dT]W[dV]W[dL]W[dV]W-NHCH2CH2OH) | - | 97.4% | 1.19
